These results are taken from BindingDB's records for patent US20250368647 (Glaxosmithkline Intellectual Property Development, 2025).

Broadly, the IC50 is the concentration at which inhibition is half-maximal.

This test addresses Sodium channel protein type 10 subunit alpha (Homo sapiens, UniProt Q9Y5Y9). Kind of test: Pharmacological Assay. The source says:
Utilizing the voltage-clamp mode in the QPatch 48 HTX system a half inactivation state voltage protocol (V1/2) was used to determine pharmacological activity of compounds of the invention at Nav1.8 ion channels. A V1/2 protocol was utilized with the following voltage steps: a holding voltage of −100 mV was established followed by a 20 ms voltage step to 0 mV (P1), followed by an inactivating voltage step at −46 mV for 8 seconds, followed by a step to −100 mV for 20 ms, before a 20 ms step to 0 mV (P2), then returned to the holding voltage of −100 mV. This voltage protocol was repeated at a frequency of every 15 seconds, the current magnitude was quantified at the P2 step throughout the recording. Inhibition of the measured current amplitude with compounds of the invention was analyzed by fitting a 4-6 points dose-response curve allowing determination of the fifty percent inhibition concentration (IC50). P2 currents were normalized according to measurements made at baseline (Baseline, vehicle only), after compound (Input, at each test concentration), and after positive reference compound (FullResponse, to achieve complete block), fit to the following equation:n.ICPD=NormalizedCurrent=(Input-Baseline)(FullResponse-Baseline)[1570]To assess current run-down over the course of the experiment vehicle-only wells were utilized and the normalized current with vehicle-only (n.IVEH) was determined. To correct the compound response for run-down, the currents were corrected according to the following formula:n.IRD_Correct=(n.ICPD-n.IVEH)(1-n.IVEH)

Sequence of Sodium channel protein type 10 subunit alpha (Q9Y5Y9 whole entry): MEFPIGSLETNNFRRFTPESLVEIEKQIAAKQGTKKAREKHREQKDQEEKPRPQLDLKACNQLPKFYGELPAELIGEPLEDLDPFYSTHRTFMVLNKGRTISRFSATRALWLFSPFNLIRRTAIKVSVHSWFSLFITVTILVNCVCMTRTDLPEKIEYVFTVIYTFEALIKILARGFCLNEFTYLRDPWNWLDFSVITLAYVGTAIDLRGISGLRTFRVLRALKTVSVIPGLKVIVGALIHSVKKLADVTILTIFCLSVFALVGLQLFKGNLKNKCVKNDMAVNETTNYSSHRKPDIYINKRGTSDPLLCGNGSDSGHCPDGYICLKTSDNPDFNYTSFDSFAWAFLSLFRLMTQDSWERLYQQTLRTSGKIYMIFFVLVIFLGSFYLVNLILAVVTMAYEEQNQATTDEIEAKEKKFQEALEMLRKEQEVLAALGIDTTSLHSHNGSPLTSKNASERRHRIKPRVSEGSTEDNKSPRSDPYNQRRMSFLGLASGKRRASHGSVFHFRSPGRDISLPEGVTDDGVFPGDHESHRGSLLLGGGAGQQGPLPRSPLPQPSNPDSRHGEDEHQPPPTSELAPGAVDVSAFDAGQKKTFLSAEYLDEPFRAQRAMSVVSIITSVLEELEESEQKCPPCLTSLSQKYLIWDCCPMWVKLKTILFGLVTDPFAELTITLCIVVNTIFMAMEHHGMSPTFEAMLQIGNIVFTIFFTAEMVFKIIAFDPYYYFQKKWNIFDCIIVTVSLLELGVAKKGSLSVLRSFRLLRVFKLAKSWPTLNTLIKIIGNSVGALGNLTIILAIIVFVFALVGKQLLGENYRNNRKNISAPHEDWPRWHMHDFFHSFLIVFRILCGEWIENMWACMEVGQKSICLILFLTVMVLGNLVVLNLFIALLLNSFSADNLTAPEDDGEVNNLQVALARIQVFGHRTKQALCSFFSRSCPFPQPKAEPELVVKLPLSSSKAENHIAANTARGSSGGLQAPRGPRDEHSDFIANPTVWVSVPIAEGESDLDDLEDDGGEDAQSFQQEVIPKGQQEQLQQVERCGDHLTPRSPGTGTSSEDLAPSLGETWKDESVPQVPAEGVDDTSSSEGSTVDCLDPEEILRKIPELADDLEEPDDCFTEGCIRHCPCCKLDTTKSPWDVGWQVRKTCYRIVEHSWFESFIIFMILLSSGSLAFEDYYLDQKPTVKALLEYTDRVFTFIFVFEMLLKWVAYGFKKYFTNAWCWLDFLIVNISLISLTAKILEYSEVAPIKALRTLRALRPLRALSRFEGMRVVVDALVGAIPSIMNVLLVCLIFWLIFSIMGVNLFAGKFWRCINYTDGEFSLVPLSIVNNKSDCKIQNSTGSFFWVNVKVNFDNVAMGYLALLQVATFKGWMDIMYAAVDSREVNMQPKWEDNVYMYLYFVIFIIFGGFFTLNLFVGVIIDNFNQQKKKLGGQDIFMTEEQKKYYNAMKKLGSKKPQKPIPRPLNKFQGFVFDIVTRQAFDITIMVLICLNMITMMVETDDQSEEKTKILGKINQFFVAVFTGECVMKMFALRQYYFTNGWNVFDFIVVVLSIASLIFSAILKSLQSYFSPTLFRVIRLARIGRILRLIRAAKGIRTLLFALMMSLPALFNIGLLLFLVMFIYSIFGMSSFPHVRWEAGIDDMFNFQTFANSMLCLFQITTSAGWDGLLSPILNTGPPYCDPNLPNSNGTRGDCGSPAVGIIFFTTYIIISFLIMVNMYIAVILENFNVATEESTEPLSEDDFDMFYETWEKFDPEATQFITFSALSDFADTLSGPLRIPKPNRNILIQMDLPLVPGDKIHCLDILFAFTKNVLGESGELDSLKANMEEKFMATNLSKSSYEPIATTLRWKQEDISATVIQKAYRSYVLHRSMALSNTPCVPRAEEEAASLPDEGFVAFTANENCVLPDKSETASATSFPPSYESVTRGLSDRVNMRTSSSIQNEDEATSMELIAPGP

`O=C1c2ccc(C(F)(F)F)cc2N2CN1c1ccc(=O)[nH]c1CCCCCOc1cc(F)ccc12` [US20250368647, Example 19] yielded an IC50 of 0.316 µM. The result for `O=C1c2cc(C(F)(F)F)ccc2N2CN1c1ccc(=O)[nH]c1CCNCc1cc(F)c(F)cc12` [US20250368647, Example 47] reads 0.2 µM. Consider `O=C1c2cc(F)c(C(F)(F)F)cc2N2CN1c1ccc(=O)[nH]c1CCNCc1cc(OC(F)(F)F)ccc12` [US20250368647, Example 51], for which the concentration for half-maximal inhibition (IC50) stood at 0.01 µM. Take `O=C1c2cc(F)c(C(F)(F)F)cc2N2CN1c1ccc(=O)[nH]c1CCNCc1c2ccc(OC(F)(F)F)c1F` [US20250368647, Example 52]: 0.00316 µM corresponded to half-maximal inhibition (IC50). The result for `O=C1c2cc(OCC(F)(F)F)ccc2N2CN1c1ccc(=O)[nH]c1CCNCc1cc(F)ccc12` [US20250368647, Example 56] reads 1.26 µM. `CC1CCNc2[nH]c(=O)ccc2N2CN(c3cc(C(F)(F)F)c(F)cc3C2=O)c2ccc(F)c(F)c21` (stereo unspecified) [US20250368647, Example 131]: it took 0.0158 µM to reach half-maximal inhibition (IC50).
